Measurements from patent US20240025919A1, “AZA-TETRACYCLIC OXAZEPINE COMPOUNDS AND USES THEREOF” (Genentech, Inc., priority 2022, published 2024).
Like-named read-outs stand apart in the source and are kept apart here. One block for each molecule: values may come before it.

Experiments:
[1] = biological target: KRAS WT (Homo sapiens (Human), UniProt P01116); experiment: KRAS WT Biochemical Assay, BODIPY-GDP Exchange TR-FRET (Example 501; 3 nM KRAS WT, 3 nM SOS1, 60-minute incubation)
Method in brief: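 SOS1-mediated exchange assay: 3 nM biotin-KRAS WT with terbium-streptavidin, started with 3 nM SOS1 and 300 nM BODIPY-GDP, HEPES pH 7.5 with MgCl2. TR-FRET (520/490 nm) read after 60 min; normalized to DMSO and full-inhibition control, IC50 from 4-parameter Hill fit.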

[2] = biological target: KRAS G12D (Homo sapiens (Human), UniProt P01116, G12D); experiment: KRAS G12D LoEnz Biochemical Assay, BODIPY-GDP Exchange TR-FRET (SOS1-mediated nucleotide exchange); conditions: read-out: KRas (G12D) GDP HTRF IC50
[3] = read-out: KRas(wt) GDP HTRF IC50

Chain of KRAS G12D (P01116-2 other isoform, or with tags, fused parts or gaps G12D): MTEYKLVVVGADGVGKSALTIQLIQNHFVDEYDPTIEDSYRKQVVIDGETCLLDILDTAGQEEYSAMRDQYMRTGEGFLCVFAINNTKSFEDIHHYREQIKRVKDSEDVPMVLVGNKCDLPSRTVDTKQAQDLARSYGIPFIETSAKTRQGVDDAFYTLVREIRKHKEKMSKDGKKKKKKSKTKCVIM
Chain of KRAS WT (P01116-2 other isoform, or with tags, fused parts or gaps): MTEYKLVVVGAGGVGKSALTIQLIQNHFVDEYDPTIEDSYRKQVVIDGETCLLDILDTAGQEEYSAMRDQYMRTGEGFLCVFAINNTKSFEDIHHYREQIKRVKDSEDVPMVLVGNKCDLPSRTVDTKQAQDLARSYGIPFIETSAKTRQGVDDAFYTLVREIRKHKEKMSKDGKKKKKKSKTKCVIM

SMILES: Cc1c(F)c(N)cc(-c2nc3c4c(nc(OC[C@@]56CCCN5C[C@H](F)C6)nc4c2F)N2C[C@H]4CC[C@H](N4)[C@@H]2[C@@H](C(F)(F)F)O3)c1C(F)(F)F [Compound 248, 2-Fluoro-5-((5S,5aR,6S,9R)-1-fluoro-12-(((2R,7aS)-2-fluorotetrahydro-1H-pyrrolizin-7a(5H)-yl)methoxy)-5-(trifluoromethyl)-5a,6,7,8,9,10-hexahydro-5H-4-oxa-3,10a,11,13,14-pentaaza-6,9-methanonaphtho[1,8-ab]heptalene-2-yl)-3-methyl-4-(trifluoromethyl)aniline]
IC50 ([1]; read-out: KRas HTRF IC50): 0.522 nM | IC50 [2]: 1.1 nM

IC50 ([1]; read-out: KRas HTRF IC50): 830 nM
SMILES: Cc1c(F)c(N)cc(-c2nc3c4c(nc(OC[C@@]56CCCN5C[C@H](F)C6)nc4c2F)N2C[C@H]4CC[C@H](NC4)[C@H]2CO3)c1C(F)(F)F [Compound 236, 2-Fluoro-5-((5aS,6S,9S)-1-fluoro-12-(((2R,7aS)-2-fluorotetrahydro-1H-pyrrolizin-7a(5H)-yl)methoxy)-5a,6,7,8,9,10-hexahydro-5H-4-oxa-3,10a,11,13,15-pentaaza-6,9-ethanonaphtho[1,8-ab]heptalene-2-yl)-3-methyl-4-(trifluoromethyl)aniline]
IC50 [2]: 68 nM

SMILES: Cc1nc(N)c(C)c(-c2nc3c4c(nc(OC[C@@]56CCCN5C[C@H](F)C6)nc4c2F)N2C[C@H]4CC[C@H](N4)[C@H]2[C@H](C)O3)c1C(F)(F)F [Compound 198, 4-((5S,5aS,6S,9R)-1-Fluoro-12-(((2R,7aS)-2-fluorotetrahydro-1H-pyrrolizin-7a(5H)-yl)methoxy)-5-methyl-5a,6,7,8,9,10-hexahydro-5H-4-oxa-3,10a,11,13,14-pentaaza-6,9-methanonaphtho[1,8-ab]heptalen-2-yl)-3,6-dimethyl-5-(trifluoromethyl)pyridin-2-amine]
IC50 ([1]; read-out: KRas HTRF IC50): 85.8 nM | IC50 [2]: 0.62 nM

SMILES: Cc1c(F)c(N)c(F)c(-c2nc3c4c(nc(OC[C@@H]5C[C@@H](F)CN5C)nc4c2F)N2C[C@H]4CC[C@H](N4)[C@H]2[C@H](C)O3)c1C(F)(F)F [Compound 228, 2,6-Difluoro-3-((5S,5aS,6S,9R)-1-fluoro-12-(((2S,4R)-4-fluoro-1-methylpyrrolidin-2-yl)methoxy)-5-methyl-5a,6,7,8,9,10-hexahydro-5H-4-oxa-3,10a,11,13,14-pentaaza-6,9-methanonaphtho[1,8-ab]heptalen-2-yl)-5-methyl-4-(trifluoromethyl)aniline]
IC50 ([1]; read-out: KRas HTRF IC50): 4880 nM | IC50 [2]: 370 nM

SMILES: Fc1c(-c2cccc3cccc(Cl)c23)nc2c3c(ncnc13)N1C[C@H]3CC[C@H](N3)[C@H]1CO2 [Compound 53, (5aS,6S,9R)-2-(8-Chloronaphthalen-1-yl)-1-fluoro-5a,6,7,8,9,10-hexahydro-5H-4-oxa-3,10a,11,13,14-pentaaza-6,9-methanonaphtho[1,8-ab]heptalene]
IC50 [1, 3]: 200000 nM | IC50 [2]: 22200 nM

SMILES: Cc1cc(-c2nc3c4c(nc(OC[C@@]56CCCN5C[C@H](F)C6)nc4c2F)N2C[C@H]4CC[C@H](N4)[C@H]2[C@H](C)O3)c(F)c(N)c1F [Compound 18, 2,6-difluoro-3-((5S,5aS,6S,9R)-1-fluoro-12-(((2R,7aS)-2-fluorotetrahydro-1H-pyrrolizin-7a(5H)-yl)methoxy)-5-methyl-5a,6,7,8,9,10-hexahydro-5H-4-oxa-3,10a,11,13,14-pentaaza-6,9-methanonaphtho[1,8-ab]heptalen-2-yl)-5-methylaniline]
IC50 [1, 3]: 7850 nM | IC50 [2]: 175 nM

SMILES: Cc1c(F)c(N)c(F)c(-c2nc3c4c(nc(OC[C@@]56CCCN5CC5(CC5(F)F)C6)nc4c2F)N2C[C@H]4CC[C@H](N4)[C@H]2[C@H](C)O3)c1C(F)(F)F (stereo partly drawn) [Compound 225, 3-((5S,5aS,6S,9R)-12-(((7a′S)-2,2-Difluorodihydro-1′H,3′H-spiro[cyclopropane-1,2′-pyrrolizin]-7a′(5′H)-yl)methoxy)-1-fluoro-5-methyl-5a,6,7,8,9,10-hexahydro-5H-4-oxa-3,10a,11,13,14-pentaaza[6,9]methanonaphtho[1,8-ab]heptalene-2-yl)-2,6-difluoro-5-methyl-4-(trifluoromethyl)aniline]
IC50 ([1]; read-out: KRas HTRF IC50): 4.2 nM | IC50 [2]: 0.25 nM

SMILES: Cc1nc(N)cc(-c2nc3c4c(nc(OCC5(CN6CC7CC(F)(F)C7C6)CC5)nc4c2F)N2C[C@H]4CC[C@H](N4)[C@H]2[C@H](C)O3)c1C(F)(F)F (mixture of isomers) [Compound 264, 4-((5S,5aS,6S,9R)-12-((1-((6,6-difluoro-3-azabicyclo[3.2.0]heptan-3-yl)methyl)cyclopropyl)methoxy)-1-fluoro-5-methyl-5a,6,7,8,9,10-hexahydro-5H-4-oxa-3,10a,11,13,14-pentaaza-6,9-methanonaphtho[1,8-ab]heptalene-2-yl)-6-methyl-5-(trifluoromethyl)pyridin-2-amine]
IC50 ([1]; read-out: KRas HTRF IC50): 19.2 nM | IC50 [2]: 0.33 nM

SMILES: Cc1nc(N)cc(-c2nc3c4c(nc(OCC5(CN6CC7CC(C6)O7)CC5)nc4c2F)N2C[C@H]4CC[C@H](N4)[C@H]2[C@H](C)O3)c1C(F)(F)F [Compound 265, 4-((5S,5aS,6S,9R)-12-((1-((6-oxa-3-azabicyclo[3.1.1]heptan-3-yl)methyl)cyclopropyl)methoxy)-1-fluoro-5-methyl-5a,6,7,8,9,10-hexahydro-5H-4-oxa-3,10a,11,13,14-pentaaza-6,9-methanonaphtho[1,8-ab]heptalene-2-yl)-6-methyl-5-(trifluoromethyl)pyridin-2-amine]
IC50 ([1]; read-out: KRas HTRF IC50): 14.1 nM | IC50 [2]: 0.28 nM

SMILES: Cc1cc(N)c(F)c(-c2nc3c4c(nc(OC[C@@H]5CC[C@H]6COCCN65)nc4c2F)N2C[C@H]4CC[C@H](N4)[C@H]2[C@H](C)O3)c1CC(F)F [Compound 231, 4-(2,2-Difluoroethyl)-2-fluoro-3-((5S,5aS,6S,9R)-1-fluoro-12-(((6S,8aS)-hexahydro-1H-pyrrolo[2,1-c][1,4]oxazin-6-yl)methoxy)-5-methyl-5a,6,7,8,9,10-hexahydro-5H-4-oxa-3,10a,11,13,14-pentaaza-6,9-methanonaphtho[1,8-ab]heptalen-2-yl)-5-methylaniline]
IC50 ([1]; read-out: KRas HTRF IC50): 1240 nM | IC50 [2]: 4.6 nM

SMILES: Cc1nc(N)c(F)c(-c2nc3c4c(nc(OC[C@@]56CCCN5CC5(CC5(F)F)C6)nc4c2F)N2C[C@H]4CC[C@H](N4)[C@H]2[C@H](C(F)(F)F)O3)c1C(F)(F)F (stereo partly drawn) [Compound 257, 4-((5R,5aS,6S,9R)-12-(((7a'S)-2,2-Difluorodihydro-1′H,3′H-spiro[cyclopropane-1,2′-pyrrolizin]-7a′(5′H)-yl)methoxy)-1-fluoro-5-(trifluoromethyl)-5a,6,7,8,9,10-hexahydro-5H-4-oxa-3,10a,11,13,14-pentaaza[6,9]methanonaphtho[1,8-ab]heptalen-2-yl)-3-fluoro-6-methyl-5-(trifluoromethyl)pyridin-2-amine]
IC50 ([1]; read-out: KRas HTRF IC50): 8.41 nM | IC50 [2]: 0.89 nM

SMILES: Cc1c(F)c(N)cc(-c2nc3c4c(nc(OCC56CCN5C[C@H](F)C6)nc4c2F)N2C[C@H]4CC[C@H](N4)[C@H]2[C@H](C)O3)c1C(F)(F)F (stereo partly drawn) [Compound 29, 2-fluoro-5-((5S,5aS,6S,9R)-1-fluoro-12-(((3R)-3-fluoro-1-azabicyclo[3.2.0]heptan-5-yl)methoxy)-5-methyl-5a,6,7,8,9,10-hexahydro-5H-4-oxa-3,10a,11,13,14-pentaaza-6,9-methanonaphtho[1,8-ab]heptalen-2-yl)-3-methyl-4-(trifluoromethyl)aniline]
IC50 [1, 3]: 2.93 nM | IC50 [2]: 0.086 nM

SMILES: C[C@@H]1Oc2nc(-c3cc(N)cc4c3CC4)c(F)c3nc(OC[C@@]45CCCN4C[C@H](F)C5)nc(c23)N2C[C@H]3CC[C@H](N3)[C@@H]12 [Compound 201, 5-((5S,5aS,6S,9R)-1-Fluoro-12-(((2R,7aS)-2-fluorotetrahydro-1H-pyrrolizin-7a(5H)-yl)methoxy)-5-methyl-5a,6,7,8,9,10-hexahydro-5H-4-oxa-3,10a,11,13,14-pentaaza-6,9-methanonaphtho[1,8-ab]heptalen-2-yl)bicyclo[4.2.0]octa-1(6),2,4-trien-3-amine]
IC50 ([1]; read-out: KRas HTRF IC50): 1620 nM | IC50 [2]: 9.19 nM

SMILES: C[C@@H]1Oc2nc(-c3cc(N)c(F)c(F)c3C(F)(F)F)c(F)c3nc(OC[C@@]45CCCN4C[C@H](F)C5)nc(c23)N2C[C@H]3CC[C@H](N3)[C@@H]12 [Compound 15, 2,3-difluoro-5-((5S,5aS,6S,9R)-1-fluoro-12-(((2R,7aS)-2-fluorotetrahydro-1H-pyrrolizin-7a(5H)-yl)methoxy)-5-methyl-5a,6,7,8,9,10-hexahydro-5H-4-oxa-3,10a,11,13,14-pentaaza-6,9-methanonaphtho[1,8-ab]heptalen-2-yl)-4-(trifluoromethyl)aniline]
IC50 [1, 3]: 0.448 nM | IC50 [2]: 0.07 nM

SMILES: Cc1nc(N)cc(-c2nc3c4c(nc(OCC5(CN6CCC(C(F)F)C6)CC5)nc4c2F)N2C[C@H]4CC[C@H](N4)[C@H]2[C@H](C)O3)c1C(F)(F)F (stereo partly drawn) [Compound 276, 4-((5S,5aS,6S,9R)-12-((1-((3-(difluoromethyl)pyrrolidin-1-yl)methyl)cyclopropyl)methoxy)-1-fluoro-5-methyl-5a,6,7,8,9,10-hexahydro-5H-4-oxa-3,10a,11,13,14-pentaaza-6,9-methanonaphtho[1,8-ab]heptalen-2-yl)-6-methyl-5-(trifluoromethyl)pyridin-2-amine]
IC50 ([1]; read-out: KRas HTRF IC50): 8.91 nM | IC50 [2]: 0.26 nM

SMILES: Cc1nc(N)cc(-c2nc3c4c(nc(OC[C@]56CCCN5CC(F)(F)C6)nc4c2F)N2C[C@H]4CC[C@H](N4)[C@H]2[C@H](C)O3)c1C(F)(F)F [Compound 217, 4-((5S,5aS,6S,9R)-12-(((R)-2,2-difluorotetrahydro-1H-pyrrolizin-7a(5H)-yl)methoxy)-1-fluoro-5-methyl-5a,6,7,8,9,10-hexahydro-5H-4-oxa-3,10a,11,13,14-pentaaza-6,9-methanonaphtho[1,8-ab]heptalen-2-yl)-6-methyl-5-(trifluoromethyl)pyridin-2-amine]
IC50 ([1]; read-out: KRas HTRF IC50): 242 nM | IC50 [2]: 3.39 nM
